Entries after “also recorded” stand apart in the source; their conditions may differ.
Assays:
[1] = target: T1, hD3 receptor (Homo sapiens, UniProt P35462); assay: Stimulation of [35S]GTPγS binding, hD3 receptor expressed in CHO cells; format: biochemical
T1 construct: expressed in transfected cells; host or cells: CHO

[2] = system: reserpinized rats; assay: Reversal of reserpine-induced hypolocomotion in rats; format: in vivo, rat; conditions: 10 μMol/kg; for Reversal of reserpine-induced hypolocomotion (horizontal locomotor activity): (−)19b i.p., ropinirole s.c., 18 h after reserpine 5 mg/kg s.c., 6 h
From the text: Administration of reserpine induces catalepsy in rodents primarily by blocking the vesicular monoamine trasporter (VMAT) which helps in the internalization of monoamines into vesicles, resulting in metabolism of unprotected monoamines in the cytosol that ultimately causes depletion of monoamines in the synapse of the peripheral sympathetic nerve terminals. The ability of the compound (-)-19b to reverse the reserpine induced hypolocomotion was investigated. Ropinirole was used as standard reference compound in this study. Reserpine (5.0 mg/kg, s.c.) or saline (s.c.) were administered 18 h before the injection of drug or vehicle (i.p.). The rats were placed individually in chambers for 1 h for acclimatization purpose before the administration of the test drug, standard drug or vehicle. Immediately after administration of drug or vehicle, animals were individually placed in […] animal activity monitor chamber (45×30×20 cm) (AccuScan Instruments, Inc. Columbus, Ohio) to start measuring locomotor activity. Locomotion was monitored for 6 h. Consecutive interruption of two infrared beams situated 24 cm apart and 4 cm above the cage floor in the monitor chamber recorded movement. The data were presented as horizontal counts (HACTV). The effect of the individual doses of drugs on locomotor activity was compared with respect to saline treated controls (mean±S.E.M.). The data were analyzed by one way analysis of variance (ANOVA) followed by Dunnett's post-hoc test.

[3] = system: 6-OHDA lesioned rats; assay: Rotational experiment with 6-OHDA unilaterally lesioned rats; format: in vivo, rat
[4] = background statement; cited from earlier work

T1 sequence (P35462 whole entry): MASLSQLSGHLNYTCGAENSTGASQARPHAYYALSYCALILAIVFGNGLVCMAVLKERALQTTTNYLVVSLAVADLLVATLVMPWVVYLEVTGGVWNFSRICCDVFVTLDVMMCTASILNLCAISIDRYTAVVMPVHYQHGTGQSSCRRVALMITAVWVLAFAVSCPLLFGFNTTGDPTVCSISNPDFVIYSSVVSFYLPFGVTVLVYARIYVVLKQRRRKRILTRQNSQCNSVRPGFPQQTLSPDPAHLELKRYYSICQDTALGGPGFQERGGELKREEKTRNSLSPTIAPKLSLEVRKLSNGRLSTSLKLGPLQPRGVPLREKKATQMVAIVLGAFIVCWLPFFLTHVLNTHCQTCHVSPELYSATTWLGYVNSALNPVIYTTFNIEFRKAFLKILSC

For `CCCN(CCN1CCN(c2ccnc3c(O)cccc23)CC1)C1CCc2c(O)cccc2C1` (single isomer, unassigned; (-)) [Compound (−)19b, (−)-4-(4-(2-((5-hydroxy-1,2,3,4-tetrahydronaphthalen-2-yl) (propyl)amino)ethyl)piperazin-1-yl)quinolin-8-ol], the “Agonism at D3 compared with dopamine” value [1] was “full or near-complete agonism”, the “Reversal of reserpine-induced hypolocomotion (horizontal locomotor activity)” value [2] was “highly efficacious; also recorded: significantly different” and the “Rotational activity at the higher dose” value ([3]; 1 μMol/kg (0.61 mg/kg), 11 h) was “remained high at the termination of the experiments”.

In the case of `C#CCNCc1ccc(O)c2ncccc12` [Compound M30, 5-((prop-2-ynylamino)methyl)quinolin-8-ol], the “Activity in animal experiments” value [4] is given as “antioxidant and neuroprotective”.

In the case of `OCCN1CCN(Cc2ccc(O)c3ncccc23)CC1` [VK 28, 5-((4-(2-hydroxyethyl)piperazin-1-yl)methyl)quinolin-8-ol], the “Activity in animal experiments” value [4] is given as “antioxidant and neuroprotective”.

In the case of `CCCN(CCC)CCc1cccc2c1CC(=O)N2` [ropinirole, reference compound], the “Agonism at D3 compared with dopamine” value [1] is reported as “full or near-complete agonism”, the “Reversal of reserpine-induced hypolocomotion (horizontal locomotor activity)” value [2] is reported as “significantly different” and the “Duration of action in reserpinized rats” value ([2]; compared with (−)19b) is reported as “much shorter duration of action”. The “Rotations and duration of action” value ([3]; 5 μMol/kg) was “much less rotations with shorter duration of action” and the “Effect on rotations compared to vehicle (Dunnett)” value ([3]; (−)19b two doses i.p., ropinirole) was “significant”.

— patent publication US9034877B2 (Wayne State University, priority 2009, dated 2015)
